Experimental data published in US9617310B2 (priority 2013, dated 2017).

Legend:
NS3 genotype 1b protease = target: T1, NS3 genotype 1b protease (Hepatitis C virus genotype 1b, UniProt Q9WMX2, E1202G); assay: Ki determination, NS3 protease genotype 1b (fluorogenic depsipeptide substrate); type: biochemical; conditions: NS3 protease domain genotype 1b, NS4A peptide
T1 construct: Purified NS3 protease domain (amino acids 1-181) of the genotype 1b and 3a virus were generated as above; K3 hexahistidine tag (N); rTEV protease cleavage site (N); made in house; host or cells: E. coli BL21AI
T1 sequence (Q9WMX2 1027-1207 E1202G, other chains not shown): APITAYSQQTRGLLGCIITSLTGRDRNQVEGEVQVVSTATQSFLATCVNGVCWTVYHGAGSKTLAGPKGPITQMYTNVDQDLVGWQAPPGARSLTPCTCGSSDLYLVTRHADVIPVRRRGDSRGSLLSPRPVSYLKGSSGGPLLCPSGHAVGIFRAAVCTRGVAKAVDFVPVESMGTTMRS
How it was run: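 NS3 protease domain (aa 1-181), 50 pM (1b) or 200 pM (3a), with 20 μM NS4A peptide, pre-incubated 1 h with inhibitor (100 nM–5 pM); 4 μM (1b) or 2 μM (3a) FRET depsipeptide substrate, room temperature, pH-unspecified HEPES buffer with 40% glycerol, 10% DMSO. Steady-state rates at 90–120 min (ex 340/em 490); Morrison fit gave Ki^app, corrected to Ki via substrate/Km.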

[1] = system: genotype 1b stable HCV replicon (Con1) in Huh-7-derived cells; assay: Stable subgenomic HCV replicon, genotype 1b, Renilla luciferase; type: cell-based; conditions: Hepatitis C virus, stable replicon genotype 1b, 72 h, read-out: EC50 1B RLUC
How it was run: (§1)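 Replicons carry hRLuc-neo, EMCV IRES and NS3-NS5B with adaptive mutations: 1a H77 P1496L/S2204I, 1b Con1 E1202G/T1280I/K1846T, 4a ED43 Q1691R/S2204I. EC50 came from non-linear regression versus DMSO and a triple-inhibitor full-inhibition control.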

[2] = system: genotype 2a stable HCV replicon (JFH-1) in Huh-7-derived cells; assay: Stable subgenomic HCV replicon, genotype 2a, Renilla luciferase; type: cell-based; conditions: Hepatitis C virus, stable replicon genotype 2a, 72 h, read-out: EC50 2A RLUC
[3] = system: genotype 3a stable HCV replicon (S52) in Huh-7-derived cells; assay: Stable subgenomic HCV replicon, genotype 3a, Renilla luciferase; type: cell-based; conditions: Hepatitis C virus, 72 h, read-out: EC50 3A RLUC
[4] = system: genotype 4a stable HCV replicon (ED43) in Huh-7-derived cells; assay: Stable subgenomic HCV replicon, genotype 4a, Renilla luciferase; type: cell-based; conditions: Hepatitis C virus, 72 h, read-out: EC50 4A RLUC
How it was run: as §1

[5] = system: genotype 3a transient HCV replicon (S52) in Huh-7-derived cells; assay: Transient-transfected HCV replicon, genotype 3a wild type; type: cell-based; conditions: Hepatitis C virus; transient-transfected replicon genotype 3a wild type, 72 h; read-out: EC50 3A WT
[6] = system: genotype 1a (H77) wild-type transient HCV replicon in Huh-7-derived cells; assay: Transient-transfected HCV replicon, genotype 1a wild type; type: cell-based; conditions: Hepatitis C virus; transient-transfected replicon genotype 1a wild type, 72 h; read-out: EC50 1A WT
[7] = system: NS3/4a protease inhibitor resistant variant R155K in genotype 1a transient HCV replicon; assay: Transient-transfected HCV replicon, genotype 1a R155K; type: cell-based; conditions: Hepatitis C virus, 72 h, read-out: EC50 1A R155K
[8] = system: NS3/4a protease inhibitor resistant variant D168A in genotype 1b transient HCV replicon; assay: Transient-transfected HCV replicon, genotype 1b D168A; type: cell-based; conditions: Hepatitis C virus, 72 h, read-out: EC50 1B D168A

COc1ccc2cc3c(nc2c1)O[C@@H]1C[C@@H](C(=O)N[C@]2(C(=O)NS(=O)(=O)C4CC4)C[C@H]2C(F)F)N(C1)C(=O)[C@H](C(C)(C)C)NC(=O)O[C@@H]1C[C@@H]2C[C@@H]2[C@H]1CCCCC3 [Example 21, (1aS,2aR,6S,9S,11R,23aR,23bS)-6-tert-butyl-N-[(1R,2R)-1-[(cyclopropylsulfonyl)carbamoyl]-2-(difluoromethyl)cyclopropyl]-15-methoxy-4,7-dioxo-1a,2,2a,4,5,6,7,10,11,19,20,21,22,23,23a,23b-hexadecahydro-1H,9H-8,11-methanocyclopropa[4′,5′]cyclopenta[1′,2′:18,19][1,10,3,6]dioxadiazacyclononadecino[11,12-b]quinoline-9-carboxamide]
Ki (NS3 genotype 1b protease): 0.02 nM | EC50 [1]: 0.95 nM | EC50 [2]: 3.5 nM | EC50 [3]: 115 nM | EC50 [4]: 1.4 nM | EC50 [5]: 36 nM | EC50 [6]: 1.5 nM | EC50 [7]: 1.4 nM | EC50 [8]: 22 nM
